Literature values in patent US20260207488A1, “Liquid pharmaceutical composition containing flecainide and process for the preparation thereof” (Colonis Pharma Ltd, priority 2022, published 2026).

Legend:
[1] = water

solubility (BCS): high solubility
aqueous solubility [1]: about 48.0 mg/mL
Compound: CC(=O)O.O=C(NCC1CCCCN1)c1cc(OCC(F)(F)F)ccc1OCC(F)(F)F (centres unmarked) [Flecainide Acetate, N-(2-piperidinylmethyl)-2,5-bis(2,2,2-trifluoroethoxy)benzamide monoacetate]
